Measurements from patent publication US20040029254A1, “Method of screening anti-bacterial agents for effectiveness in treating persistant intracellular infections” (University of Washington, priority 2002, published 2004).
Values after ≈ are worked out from the molar mass of the structure shown. Values joined by “and” are separate entries in the source; they are usually repeats but may differ in a detail not shown here. Equal entries are not always repeated. Where two headings read alike, the source gives them in different places.

Key:
Format in all cases: cell-based
[1] = tested on: Chlamydia trachomatis clinical isolates; assay: Anti-bacterial susceptibilities of clinical isolates; details: for MIC: Chlamydia trachomatis, read-out: MIC (microtiter)
[2] = tested on: C. trachomatis serovar D strain; assay: Comparison of MIC, MCC, MCC3 and MCC3/MIC ratio in McCoy cells; details: for MIC: Chlamydia trachomatis
[3] = tested on: C. pneumoniae TW-183, CWL-029; assay: Anti-bacterial susceptibilities of reference strains; details: for MIC: Chlamydia pneumoniae, HEp-2 cells, read-out: MIC (microtiter)
[4] = tested on: C. trachomatis MoPn (mouse pneumonitis strain); assay: as above; details: Chlamydia trachomatis; McCoy cells; read-out: MIC (microtiter)
C. psittaci 6BC, GPIC = assay: microbe, parasite or virus in culture; details: Chlamydia psittaci, read-out: MIC (microtiter)
[5] = tested on: C. trachomatis L2 (LGV serovar); assay: Anti-bacterial susceptibilities of reference strains; details: Chlamydia trachomatis; McCoy cells; read-out: MIC (microtiter)
[6] = tested on: clinical isolates of C. trachomatis; assay: microbe, parasite or virus in culture
[7] = tested on: C. trachomatis serovar D (strain UW-3); assay: Effect of inoculum size on doxycycline MIC, MCC and MCC3
[8] = tested on: C. trachomatis B,D,E,F,G,H,I,Ia,J,K (human genital serovars); assay: Anti-bacterial susceptibilities of reference strains; details: Chlamydia trachomatis; McCoy cells; read-out: MIC (microtiter)
[9] = tested on: Chlamydia trachomatis serovar D; assay: microbe, parasite or virus in culture
[10] = CDC strains sensitive controls (n = 2), McCoy cells
[11] = CDC strains treatment failures (n = 2), McCoy cells
[12] = Recurrent same serovar isolates (n = 6), McCoy cells
[13] = Single isolates (n = 30), McCoy cells
[14] = Treatment failure isolates (n = 6), McCoy cells
[15] = CDC strains treatment failures (n = 2), multi-drug resistant at CDC, McCoy cells
[16] = inoculum 0.3125 × 10^3 IFU/well

CC[C@H]1OC(=O)[C@H](C)[C@@H](O[C@H]2C[C@@](C)(OC)[C@@H](O)[C@H](C)O2)[C@H](C)[C@@H](O[C@@H]2O[C@H](C)C[C@H](N(C)C)[C@H]2O)[C@](C)(O)C[C@@H](C)CN(C)[C@H](C)[C@@H](O)[C@]1(C)O [Azithromycin, azithromycin]
MCC3 (shell vial) [1, 10]: 64 µg/mL
MCC (microtiter) [1, 10]: 0.25 to 0.5 µg/mL
MCC (shell vial) [1, 10]: >8 µg/mL
MCC3 (shell vial) [1, 11]: 64 µg/mL
MCC (microtiter) [1, 11]: 0.25 to 0.5 µg/mL
MCC (shell vial) [1, 11]: >8 µg/mL
MCC3 (shell vial) [1, 12]: 64 µg/mL
MCC (microtiter) [1, 12]: 0.25 to 0.5 µg/mL
MCC (shell vial) [1, 12]: >8 µg/mL
MCC3 (shell vial) [1, 13]: 64 µg/mL
MCC (microtiter) [1, 13]: 0.25 to 0.5 µg/mL
MCC (shell vial) [1, 13]: >8 µg/mL
MCC3 (shell vial) [1, 14]: 64 µg/mL
MCC (microtiter) [1, 14]: 0.25 to 0.5 µg/mL
MCC (shell vial) [1, 14]: >8 µg/mL
MCC ([2]; McCoy cells): 8 µg/mL
MCC3 ([2]; McCoy cells): 64 µg/mL
MCC1 (shell vial) [3]: 4 to 8 µg/mL
MCC3 (shell vial) [3]: 64 µg/mL
MCC (microtiter) [3]: 0.25 µg/mL

C[C@H]1c2cccc(O)c2C(=O)C2=C(O)[C@]3(O)C(=O)C(C(N)=O)=C(O)[C@@H](N(C)C)[C@@H]3[C@@H](O)[C@@H]21 [Doxycycline, doxycycline]
MIC [4]: 64 ng/mL (≈ 144 nM)
MIC (C. psittaci 6BC, GPIC): 64 ng/mL (≈ 144 nM)
MIC [5]: 64 ng/mL (≈ 144 nM)
MCC3/MIC [6]: 1000
MIC ([6]; Chlamydia trachomatis): 64 to 125 ng/mL (≈ 144 to 281 nM)
MCC3 (shell vial) [1, 10]: 16 to 64 µg/mL
MCC (microtiter) [1, 10]: 0.125 to 0.25 µg/mL
MCC (shell vial) [1, 10]: >8 µg/mL
MIC (microtiter) [1, 10]: 64 to 125 ng/mL
MIC (microtiter) [1, 15]: 64 to 125 ng/mL
MCC3 (shell vial) [1, 11]: 16 to 64 µg/mL
MCC (microtiter) [1, 11]: 0.125 to 0.25 µg/mL
MCC (shell vial) [1, 11]: >8 µg/mL
MIC [1]: 64 to 125 ng/mL (≈ 144 to 281 nM)
MCC3 (shell vial) [1, 12]: 16 to 64 µg/mL
MCC (microtiter) [1, 12]: 0.125 to 0.25 µg/mL
MCC (shell vial) [1, 12]: >8 µg/mL
MCC3 (shell vial) [1, 13]: 16 to 64 µg/mL
MCC (microtiter) [1, 13]: 0.125 to 0.25 µg/mL
MCC (shell vial) [1, 13]: >8 µg/mL
MIC (microtiter) [1, 13]: 64 to 125 ng/mL
MCC3 (shell vial) [1, 14]: 16 to 64 µg/mL
MCC (microtiter) [1, 14]: 0.125 to 0.25 µg/mL
MCC (shell vial) [1, 14]: >8 µg/mL
MIC (microtiter) [1, 14]: 64 to 125 ng/mL
MIC ([7]; Chlamydia trachomatis, inoculum 80 × 10^3 IFU/well, read-out: MIC): 64 ng/mL (≈ 144 nM)
MCC [7, 16]: 0.064 µg/mL
MCC3 [7, 16]: 0.064 µg/mL
MIC [7, 16]: 64 ng/mL (≈ 144 nM)
MCC ([7]; inoculum 0.625 × 10^3 IFU/well): 0.064 µg/mL
MCC3 ([7]; inoculum 0.625 × 10^3 IFU/well): 0.064 µg/mL
MIC ([7]; inoculum 0.625 × 10^3 IFU/well): 64 ng/mL (≈ 144 nM)
MCC ([7]; inoculum 5 × 10^3 IFU/well): >8 µg/mL
MCC3 ([7]; inoculum 5 × 10^3 IFU/well): 64 µg/mL
MIC ([7]; inoculum 5 × 10^3 IFU/well): 64 ng/mL (≈ 144 nM)
MCC ([7]; inoculum 10 × 10^3 IFU/well): >8 µg/mL
MCC3 ([7]; inoculum 10 × 10^3 IFU/well): 64 µg/mL
MIC ([7]; inoculum 10 × 10^3 IFU/well): 64 ng/mL (≈ 144 nM)
MCC ([7]; inoculum 20 × 10^3 IFU/well): >8 µg/mL
MCC3 ([7]; inoculum 20 × 10^3 IFU/well): 64 µg/mL
MIC ([7]; inoculum 20 × 10^3 IFU/well): 64 ng/mL (≈ 144 nM)
MCC ([7]; inoculum 40 × 10^3 IFU/well): >8 µg/mL
MCC3 ([7]; inoculum 40 × 10^3 IFU/well): 64 µg/mL
MIC ([7]; inoculum 40 × 10^3 IFU/well): 64 ng/mL (≈ 144 nM)
MCC ([7]; inoculum 80 × 10^3 IFU/well): >8 µg/mL
MCC3 ([7]; inoculum 80 × 10^3 IFU/well): 64 µg/mL
MCC ([7]; inoculum 160 × 10^3 IFU/well): >8 µg/mL
MCC3 ([7]; inoculum 160 × 10^3 IFU/well): 64 µg/mL
MIC ([7]; inoculum 160 × 10^3 IFU/well): 64 ng/mL (≈ 144 nM)
MCC ([7]; inoculum 320 × 10^3 IFU/well): >8 µg/mL
MCC3 ([7]; inoculum 320 × 10^3 IFU/well): 64 µg/mL
MIC ([7]; inoculum 320 × 10^3 IFU/well): 64 ng/mL (≈ 144 nM)
MCC ([7]; inoculum […] 10^3 IFU/well): 0.064 µg/mL
MCC3 ([7]; inoculum […] 10^3 IFU/well): 0.064 µg/mL
MIC ([7]; inoculum […] 10^3 IFU/well): 64 ng/mL (≈ 144 nM)
MIC [8]: 64 ng/mL (≈ 144 nM)
MCC3/MIC [2]: 1000
MIC ([2]; McCoy cells, read-out: MIC): 64 ng/mL
MCC ([2]; McCoy cells): 8 µg/mL
MCC3 ([2]; McCoy cells): 64 µg/mL
MCC1 (shell vial) [3]: 4 to 8 µg/mL
MCC3 (shell vial) [3]: 32 to 64 µg/mL
MCC (microtiter) [3]: 0.125 µg/mL
MIC [3]: 64 ng/mL (≈ 144 nM)

CC[C@H]1OC(=O)[C@H](C)[C@@H](O[C@H]2C[C@@](C)(OC)[C@@H](O)[C@H](C)O2)[C@H](C)[C@@H](O[C@@H]2O[C@H](C)C[C@H](N(C)C)[C@H]2O)[C@](C)(O)C[C@@H](C)C(=O)[C@H](C)[C@@H](O)[C@]1(C)O [Erythromycin, erythromycin]
MIC ([2]; McCoy cells, read-out: MIC): 500 ng/mL
MCC ([2]; McCoy cells): 8 µg/mL

CCCN1CCN(c2cc(O)c3nc4c5c6c7c(C)c(O)c5c(=O)c(c-4oc3c2)NC(=O)/C(C)=C\C=C\[C@H](C)[C@H](O)[C@@H](C)[C@@H](O)[C@@H](C)[C@H](OC(C)=O)[C@H](C)[C@@H](OC)/C=C/O[C@@](C)(O7)C6=O)CC1 [KRM-1657]
MCC3/MIC [6]: 16
MIC [6]: 0.064 to 0.125 ng/mL
anti-chlamydial activity in words [6]: highly active

CC1COc2c(N3CCN(C)CC3)c(F)cc3c(=O)c(C(=O)O)cn1c23 (stereo not drawn) [Ofloxacin, ofloxacin]
MIC [4]: 500 ng/mL (≈ 1380 nM)
MCC [9]: >8 µg/mL and 4 µg/mL and 8 µg/mL
MIC (C. psittaci 6BC, GPIC): 500 ng/mL (≈ 1380 nM)
MIC [5]: 500 ng/mL (≈ 1380 nM)
MCC3/MIC [6]: 128
MIC ([6]; Chlamydia trachomatis): 1000 to 2000 ng/mL (≈ 2770 to 5530 nM)
MCC3 (shell vial) [1, 10]: >128 µg/mL
MCC (microtiter) [1, 10]: 1 to 2 µg/mL
MCC (shell vial) [1, 10]: >8 µg/mL
MIC (microtiter) [1, 10]: 500 to 1000 ng/mL
MIC (microtiter) [1, 15]: 500 to 1000 ng/mL
MCC3 (shell vial) [1, 11]: >128 µg/mL
MCC (microtiter) [1, 11]: 1 to 2 µg/mL
MCC (shell vial) [1, 11]: >8 µg/mL
MIC [1, 12]: 500 to 1000 ng/mL (≈ 1380 to 2770 nM)
MCC3 (shell vial) [1, 12]: >128 µg/mL
MCC (microtiter) [1, 12]: 1 to 2 µg/mL
MCC (shell vial) [1, 12]: >8 µg/mL
MCC3 (shell vial) [1, 13]: >128 µg/mL
MCC (microtiter) [1, 13]: 1 to 2 µg/mL
MCC (shell vial) [1, 13]: >8 µg/mL
MIC (microtiter) [1, 13]: 500 to 1000 ng/mL
MCC3 (shell vial) [1, 14]: >128 µg/mL
MCC (microtiter) [1, 14]: 1 to 2 µg/mL
MCC (shell vial) [1, 14]: >8 µg/mL
MIC (microtiter) [1, 14]: 500 to 1000 ng/mL
MIC [8]: 500 ng/mL (≈ 1380 nM)
MCC3 [2]: 128 µg/mL
MCC3/MIC [2]: 128
MIC ([2]; McCoy cells, read-out: MIC): 1000 ng/mL
MCC ([2]; McCoy cells): 16 µg/mL
MCC1 (shell vial) [3]: >8 µg/mL
MCC3 (shell vial) [3]: >128 µg/mL
MCC (microtiter) [3]: 1.0 µg/mL
MIC [3]: 500 ng/mL (≈ 1380 nM)

CO[C@H]1/C=C/O[C@@]2(C)Oc3c(C)c(O)c4c(=O)c(c5oc6cc(N7CCN(CC(C)C)CC7)cc(O)c6nc-5c4c3C2=O)NC(=O)/C(C)=C\C=C\[C@H](C)[C@H](O)[C@@H](C)[C@@H](O)[C@@H](C)[C@H](OC(C)=O)[C@@H]1C [Rifalazil, rifalazil]
MCC3/MIC [6]: 16
anti-chlamydial activity in words [6]: highly active
MIC ([6]; Chlamydia trachomatis): 0.25 to 5 ng/mL (≈ 0.266 to 5.31 nM)
MCC3/MIC [2]: 16
MIC ([2]; McCoy cells, read-out: MIC): 0.25 ng/mL
MCC ([2]; McCoy cells): 0.002 µg/mL
MCC3 ([2]; McCoy cells): 0.004 µg/mL
anti-chlamydial activity in words ([2]; McCoy cells, compared with other drugs): highly active

CO[C@H]1/C=C/O[C@@]2(C)Oc3c(C)c(O)c4c(O)c(c(/C=N/N5CCN(C)CC5)c(O)c4c3C2=O)NC(=O)/C(C)=C\C=C\[C@H](C)[C@H](O)[C@@H](C)[C@@H](O)[C@@H](C)[C@H](OC(C)=O)[C@@H]1C [Rifampin, rifampin]
MIC ([2]; McCoy cells, read-out: MIC): 16 ng/mL
MCC ([2]; McCoy cells): 0.5 µg/mL
MCC3 ([2]; McCoy cells): 4 µg/mL
MCC3/MIC ([2]; McCoy cells): 250

CN(C)[C@@H]1C(O)=C(C(N)=O)C(=O)[C@@]2(O)C(O)=C3C(=O)c4c(O)cccc4[C@@](C)(O)[C@H]3C[C@@H]12 [Tetracycline, tetracycline]
MIC ([9]; Chlamydia trachomatis): 250 ng/mL (≈ 563 nM)
MCC [2]: 16 µg/mL
MCC3 [2]: 128 µg/mL
MCC3/MIC [2]: 128
MIC [2]: 250 ng/mL
